The source of these data is the supplement of paper PMC11208160.
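Also: IS621 recombinase and bridge RNA in Escherichia coli cells.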

A short description of this series: recombinant barcode read abundance after kanamycin selection (control-corrected) (log10(CPM+1)); higher = more efficient recombination; sequences stand for … in AGTGCAGAGAAAATCGGCCAGTTTTCTCTGCCTGCAGTCCGCATGCCGT…AGATTTATGCAGCGGACTGCCTTTCTCCCAAAGTGATAAACCGGACAGTATCATGGACCGGTTTTCCCGGTAATCCGTATTTGCAAGGTTGGTTTCACT; site = the 11-nt target. As for the experimental part: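 Pooled E. coli target-specificity screen for the IS621 bridge recombinase. Each library plasmid pairs an 11-nt target (CT core) with a bridge RNA whose target-binding loop (9-nt LTG + 4-nt RTG) is reprogrammed; the rest of the 177-nt WT IS621 bridge RNA scaffold is fixed. The plasmid is co-electroporated with a WT donor plasmid; recombinase is induced with 0.1 mM IPTG and recombinants are selected on kanamycin. Recombinant barcodes are sequenced, converted to CPM, averaged over two biological replicates and corrected by the unselected control CPM. Molecule = full bridge RNA written as DNA: LTG = specificity nt 1-9, RTG = reverse complement of specificity nt 8-11, in the WT scaffold.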
“ACAGGTCCTTGGGTTCTAACCTGTTGCCG (site ACAGGTCCTCG)”: the “recombinant barcode read abundance (log10)” value amounted to 2.34. As for “ACAGGTCCTTGGGTTCTAACCTGTTGCCG (site GTCTAATCTAT)”, the figure is 0.12; as for “ACAGTACCTTGGGTTCTAACCTGTTGCTG (site ACAGTACCTCA)”, 1.87. In the case of “ACAGTACCTTGGGTTCTAACCTGTTGCTG (site TAGCCCTCTTT)”, the “recombinant barcode read abundance (log10)” value was 0.204. To “ACAGTTACTTGGGTTCTAACCTGTTGCAT (site ACAGTTACTAT)” belongs 1.29; to “ACAGTTACTTGGGTTCTAACCTGTTGCAT (site TTGTGAGCTTG)”, 0.737. As for “ACATACCCTTGGGTTCTAACCTGTTGCTG (site ACATACCCTCA)”, the figure is 1.81; as for “ACATACCCTTGGGTTCTAACCTGTTGCTG (site CTTCGAACTAT)”, 0.142. As for “ACATGGACTTGGGTTCTAACCTGTTGCAT (site ACATGAACTAT)”, the figure is 0.753. With “ACATGGACTTGGGTTCTAACCTGTTGCAT (site ACATGCACTAT)”, the “recombinant barcode read abundance (log10)” value stood at 0.115.

For “ACATGGACTTGGGTTCTAACCTGTTGCAT (site ACATGGACTAT)”, the “recombinant barcode read abundance (log10)” value worked out at 2.72. Consider “ACATGGACTTGGGTTCTAACCTGTTGCAT (site ACATGTACTAT)”, for which the “recombinant barcode read abundance (log10)” value was 0.157. As for “ACATGTACTTGGGTTCTAACCTGTTGCAG (site ACATGTACTCT)”, the figure is 1.28. For “ACATGTACTTGGGTTCTAACCTGTTGCAG (site AGATGTACTCA)”, the “recombinant barcode read abundance (log10)” value is 0.0852. To “ACATGTACTTGGGTTCTAACCTGTTGCAT (site ACATGAACTAT)” belongs 0.0356; to “ACATGTACTTGGGTTCTAACCTGTTGCAT (site ACATGCACTAT)”, 0. As for “ACATGTACTTGGGTTCTAACCTGTTGCAT (site ACATGGACTAT)”, the figure is 0.121; as for “ACATGTACTTGGGTTCTAACCTGTTGCAT (site ACATGTACTAT)”, 0.888; as for “ACATGTACTTGGGTTCTAACCTGTTGCCG (site ACATGTACTCA)”, 0.0415.

Regarding “ACATGTACTTGGGTTCTAACCTGTTGCCG (site ACATGTACTCG)”, the “recombinant barcode read abundance (log10)” value came to 0.158. To “ACATGTACTTGGGTTCTAACCTGTTGCTG (site ACATGTACTCA)” belongs 1.1. As for “ACATGTACTTGGGTTCTAACCTGTTGCTG (site ACATGTACTCG)”, the figure is 0.182. For “ACATTGCCTTGGGTTCTAACCTGTTGCCT (site ACATTGCCTAG)”, the “recombinant barcode read abundance (log10)” value was determined as 0.44.

As to “ACATTGCCTTGGGTTCTAACCTGTTGCCT (site ACCTTGCCTAG)”, the “recombinant barcode read abundance (log10)” value was determined as 0.0938. As for “ACATTGCCTTGGGTTCTAACCTGTTGCCT (site ACGTTGCCTAG)”, the figure is 0.732; as for “ACATTGCCTTGGGTTCTAACCTGTTGCCT (site ACTTTGCCTAG)”, 0; as for “ACCAAGTCTTGGGTTCTAACCTGTTGCGC (site ACCAAGTCTAC)”, 0.251. To “ACCAAGTCTTGGGTTCTAACCTGTTGCGC (site ACCAAGTCTGC)” belongs 1.74; to “ACCACAGCTTGGGTTCTAACCTGTTGCCT (site ACCAAAGCTTG)”, 0.16. To “ACCACAGCTTGGGTTCTAACCTGTTGCCT (site ACCACAGCTAG)” belongs 0.283; to “ACCAGATCTTGGGTTCTAACCTGTTGCCT (site ACCAGATCTAG)”, 0.846. For “ACCAGATCTTGGGTTCTAACCTGTTGCCT (site TCCAGCTCTAG)”, the “recombinant barcode read abundance (log10)” value stood at 0.152. On to “ACCCAGCCTTGGGTTCTAACCTGTTGCAG (site ACCCAGCCTCT)”, for which the “recombinant barcode read abundance (log10)” value is 2.27. As for “ACCCAGCCTTGGGTTCTAACCTGTTGCAG (site TGAGTCTCTTG)”, the “recombinant barcode read abundance (log10)” value was 0.0203. As for “ACCCAGCCTTGGGTTCTAACCTGTTGCAT (site ACCCAGCCTAA)”, the figure is 1.4; as for “ACCCAGCCTTGGGTTCTAACCTGTTGCAT (site ACCCAGCCTAC)”, 0.265; as for “ACCCAGCCTTGGGTTCTAACCTGTTGCAT (site ACCCAGCCTAG)”, 0.68. As for “ACCCAGCCTTGGGTTCTAACCTGTTGCAT (site ACCCAGCCTAT)”, the figure is 2.45. To “ACCCAGCCTTGGGTTCTAACCTGTTGCTT (site ACCCAGCCTAA)” belongs 1.77; to “ACCCAGCCTTGGGTTCTAACCTGTTGCTT (site ACCCAGCCTAC)”, 0.278.

Turning to “ACCCAGCCTTGGGTTCTAACCTGTTGCTT (site ACCCAGCCTAG)”, the “recombinant barcode read abundance (log10)” value is 0.758. To “ACCCAGCCTTGGGTTCTAACCTGTTGCTT (site ACCCAGCCTAT)” belongs 1.41. As for “ACCCGTACTTGGGTTCTAACCTGTTGCCT (site ACCAGTACTAG)”, the figure is 0.063; as for “ACCCGTACTTGGGTTCTAACCTGTTGCCT (site ACCCGTACTAG)”, 1.26; as for “ACCCGTACTTGGGTTCTAACCTGTTGCCT (site ACCGGTACTAG)”, 0.0386. To “ACCCGTACTTGGGTTCTAACCTGTTGCCT (site ACCTGTACTAG)” belongs 0.485; to “ACCCGTCCTTGGGTTCTAACCTGTTGCAG (site ACCCGTCCTCT)”, 2.67; to “ACCCGTCCTTGGGTTCTAACCTGTTGCAG (site GGCCGTCCTCT)”, 0.051.

For “ACCCTAGCTTGGGTTCTAACCTGTTGCCA (site ACCCTAGCTTG)”, the “recombinant barcode read abundance (log10)” value worked out at 1.52.

For “ACCCTAGCTTGGGTTCTAACCTGTTGCCA (site ATCGTAGCTTG)”, the “recombinant barcode read abundance (log10)” value turned out to be 0.0661. With “ACCCTAGCTTGGGTTCTAACCTGTTGCTC (site AACCTAGCTTA)”, the “recombinant barcode read abundance (log10)” value turned out to be 0.191. As for “ACCCTAGCTTGGGTTCTAACCTGTTGCTC (site ACCCTAGCTGA)”, the figure is 1.95. To “ACCCTATCTTGGGTTCTAACCTGTTGCTT (site ACCCTATCTAA)” belongs 0.944; to “ACCCTATCTTGGGTTCTAACCTGTTGCTT (site ACTCTGTCTAA)”, 0.114.

As for “ACCGACCCTTGGGTTCTAACCTGTTGCAT (site ACCGACCCTAT)”, the “recombinant barcode read abundance (log10)” value is 1.67.

For “ACCGACCCTTGGGTTCTAACCTGTTGCAT (site TAGTTTGCTCG)”, the “recombinant barcode read abundance (log10)” value worked out at 0.401. To “ACCGCGTCTTGGGTTCTAACCTGTTGCAT (site ACCGCGTCTAT)” belongs 0.521; to “ACCGCGTCTTGGGTTCTAACCTGTTGCAT (site TTGATAGCTTA)”, 0.0509; to “ACCGCTCCTTGGGTTCTAACCTGTTGCCT (site AACGCTCCTAG)”, 0.0208. In the case of “ACCGCTCCTTGGGTTCTAACCTGTTGCCT (site ACCGCTCCTAG)”, the “recombinant barcode read abundance (log10)” value came to 0.297. To “ACCGCTCCTTGGGTTCTAACCTGTTGCCT (site AGCGCTCCTAG)” belongs 0.0225; to “ACCGCTCCTTGGGTTCTAACCTGTTGCCT (site ATCGCTCCTAG)”, 0.0271. As for “ACCTACCCTTGGGTTCTAACCTGTTGCCT (site ACATACACTAG)”, the figure is 0.136; as for “ACCTACCCTTGGGTTCTAACCTGTTGCCT (site ACCTACCCTAG)”, 1.14; as for “ACCTACGCTTGGGTTCTAACCTGTTGCCT (site ACCTACGCTAG)”, 1.01. To “ACCTACGCTTGGGTTCTAACCTGTTGCCT (site ACCTACTCTAG)” belongs 0.23; to “ACCTACTCTTGGGTTCTAACCTGTTGCTT (site ACCTACTCTAA)”, 1.33.

Consider “ACCTACTCTTGGGTTCTAACCTGTTGCTT (site AGCTACCCTAA)”, for which the “recombinant barcode read abundance (log10)” value stood at 0.315. As for “ACCTCGGCTTGGGTTCTAACCTGTTGCTG (site ACCTCGGCTCA)”, the figure is 0.399; as for “ACCTCGGCTTGGGTTCTAACCTGTTGCTG (site TGGCAATCTAG)”, 0.0759; as for “ACCTTAGCTTGGGTTCTAACCTGTTGCTT (site ACCTTAGCTAA)”, 0.297. To “ACCTTAGCTTGGGTTCTAACCTGTTGCTT (site TAGGCGACTTG)” belongs 0.0735.

As to “ACCTTGTCTTGGGTTCTAACCTGTTGCTA (site ACCTTGTCTTA)”, the “recombinant barcode read abundance (log10)” value worked out at 0.777.
